# Experiment: Particle size (D90) of lemborexant active pharmaceutical ingredient by laser diffraction/scattering
# Type: physicochemical
# Settings: for Particle size (D90 (μm)): pulverized lemborexant API lots, Table 1; for D90 (μm): after pulverization with 160UPZ (Example 1, Table 2), Microtrack MT3300EXII
# Protocol: The particle size of the granular material, which is a lemborexant active pharmaceutical ingredient, can be measured by a laser diffraction/scattering method.
# A sample suspension is prepared by dispersing about 30 mg of a lemborexant active pharmaceutical ingredient in 50 mL of a 0.1% polysorbate 20 aqueous solution as a dispersion solvent. The sample suspension is put into a diffractometer and an appropriate amount of dispersion solvent is added. The particle size distribution of the sample suspension is measured, and the value of the particle size of the sample is recorded as a cumulative diameter distribution.
# Particle size distribution measurement conditions for the diffractometer may be as follows.
# Number of measurements: 3 times
# Measurement time: 30 seconds
# Transparency: Transparent
# Particle refractive index: 1.81
# Solvent refractive index: 1.33
# The 90% cumulative diameter (D90) was measured with a particle size analyzer (Microtrack MT3300EXII). A sample suspension was prepared by dispersing about 30 mg of a lemborexant active pharmaceutical ingredient in 50 mL of a dispersion solvent 0.1% polysorbate 20 aqueous solution. The sample suspension was put into a particle size analyzer, and an appropriate amount of a dispersion solvent was added thereto. The particle size distribution of the sample suspension was measured, and the value of the particle size of the sample was recorded as a cumulative diameter distribution.
# The measurement conditions for the particle size analyzer are as follows.
# Flow rate: 50% Number of measurements: 3 times Measurement time: 30 seconds
# Particle refractive index: 1.81 Solvent refractive index: 1.33
structure (smiles),measurement,setting,value
Cc1ncc(OC[C@@]2(c3cccc(F)c3)C[C@H]2C(=O)Nc2ccc(F)cn2)c(C)n1 [Lot 5],Particle size (D90 (μm)),listed as 5,39 μm
Cc1ncc(OC[C@@]2(c3cccc(F)c3)C[C@H]2C(=O)Nc2ccc(F)cn2)c(C)n1 [Lot S3],D90 (μm),listed as S3,64 μm
Cc1ncc(OC[C@@]2(c3cccc(F)c3)C[C@H]2C(=O)Nc2ccc(F)cn2)c(C)n1 [Lot 9],Particle size (D90 (μm)),listed as 9,34 μm
Cc1ncc(OC[C@@]2(c3cccc(F)c3)C[C@H]2C(=O)Nc2ccc(F)cn2)c(C)n1 [Lot 8],Particle size (D90 (μm)),listed as 8,35 μm
Cc1ncc(OC[C@@]2(c3cccc(F)c3)C[C@H]2C(=O)Nc2ccc(F)cn2)c(C)n1 [Lot S1],D90 (μm),listed as S1,98 μm
Cc1ncc(OC[C@@]2(c3cccc(F)c3)C[C@H]2C(=O)Nc2ccc(F)cn2)c(C)n1 [Lot 1],Particle size (D90 (μm)),listed as 1,47 μm
Cc1ncc(OC[C@@]2(c3cccc(F)c3)C[C@H]2C(=O)Nc2ccc(F)cn2)c(C)n1 [Lot 4],Particle size (D90 (μm)),listed as 4,32 μm
Cc1ncc(OC[C@@]2(c3cccc(F)c3)C[C@H]2C(=O)Nc2ccc(F)cn2)c(C)n1 [Lot 7],Particle size (D90 (μm)),listed as 7,40 μm
Cc1ncc(OC[C@@]2(c3cccc(F)c3)C[C@H]2C(=O)Nc2ccc(F)cn2)c(C)n1 [Lot 2],Particle size (D90 (μm)),listed as 2,18 μm
Cc1ncc(OC[C@@]2(c3cccc(F)c3)C[C@H]2C(=O)Nc2ccc(F)cn2)c(C)n1 [Lot 3],Particle size (D90 (μm)),listed as 3,48 μm
Cc1ncc(OC[C@@]2(c3cccc(F)c3)C[C@H]2C(=O)Nc2ccc(F)cn2)c(C)n1 [Lot 6],Particle size (D90 (μm)),listed as 6,23 μm
Cc1ncc(OC[C@@]2(c3cccc(F)c3)C[C@H]2C(=O)Nc2ccc(F)cn2)c(C)n1 [Lot S5],D90 (μm),listed as S5,110 μm
Cc1ncc(OC[C@@]2(c3cccc(F)c3)C[C@H]2C(=O)Nc2ccc(F)cn2)c(C)n1 [Lot S2],D90 (μm),listed as S2,79 μm
Cc1ncc(OC[C@@]2(c3cccc(F)c3)C[C@H]2C(=O)Nc2ccc(F)cn2)c(C)n1 [Lot S6],D90 (μm),listed as S6,20 μm
Cc1ncc(OC[C@@]2(c3cccc(F)c3)C[C@H]2C(=O)Nc2ccc(F)cn2)c(C)n1 [Lot S4],D90 (μm),listed as S4,56 μm
"Cc1ncc(OC[C@@]2(c3cccc(F)c3)C[C@H]2C(=O)Nc2ccc(F)cn2)c(C)n1 [lemborexant, (1R,2S)-2-(((2,4-dimethylpyrimidine-5-yl)oxy)methyl)-2-(3-fluorophenyl)-N-(5-fluoropyridin-2-yl)cyclopropanecarboxamide]",D90,API used for the tablets of Example 4,32 μm
